Assay results: patent US6291247A, “Methods of screening for factors that disrupt neurotrophin conformation and reduce neurotrophin biological activity” (priority 1996, dated 2001)
Bridges are numbered along the chain shown (N, C = ends).

What was measured:
p75^NTR and TrkA [1] = target: T1, p75^NTR and TrkA (Mus musculus, UniProt P01139); assay: Binding of 125I-NGF to PC12 cells (p75NTR + TrkA); design: species or system rat; settings: 120 min; for steady-state specific binding of 125I-NGF (0.5 nM) to p75NTR and TrkA: ± SEM
T1 construct: these cells express both NGF receptor types; endogenous in cells; host or cells: PC12 rat pheochromocytoma cells
Protocol: (§1) PC12 cells were grown in RPMI with 10% heat inactivated donor horse serum and 5% fetal calf serum. […] The tubes were incubated for 2 hr at 4° C. and 100 μl aliquots (providing triplicate data points for each sample) were transferred to 400 μl microcentrifuges containing 200 μl of 10% glycerol in HKR. Tubes were centrifuged for 2 minutes at 5,000 rpm, the tip containing the cell pellet cut off and radioactivity bound to the cells was determined.

p75^NTR and TrkA [2] = assay: Binding of 125I-NGF to PC12 cells (p75NTR + TrkA); design: species or system rat; settings: above 100 μM
Protocol: as §1

p75^NTR and TrkA [3] = test system: T2, p75^NTR and TrkA; assay: Binding of 125I-NGF to PC12 cells (p75NTR + TrkA); design: species or system rat; settings: 100 μM; CaEDTA together with Zn2+
T2 construct: these cells express both NGF receptor types; endogenous in cells; host or cells: PC12 rat pheochromocytoma cells
Protocol: as §1
T2 sequence (P01139 122-239): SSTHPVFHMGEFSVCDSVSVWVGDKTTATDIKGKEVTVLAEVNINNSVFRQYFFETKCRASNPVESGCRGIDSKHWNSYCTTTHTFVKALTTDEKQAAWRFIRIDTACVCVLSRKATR

NGF dimer = NGF dimer stability by non-reducing gel electrophoresis; design: species or system mouse
Protocol: For conformation and dimer integrity studies, 0.1 nM ^125 I-NGF was incubated in the presence or absence of Zn^2+ in HKR buffer for 2 hours at 4° C. in a total volume of 0.1 ml. For crosslinking NGF […], 0.4 mM BS^3 was added to the mixture and incubated for 30 minutes at 25° C. The reaction was quenched with reducing SDS PAGE sample buffer, electrophoresed using a linear 15% acrylamide gel and autoradiographed. To assess the dimeric nature of NGF in the presence of Zn^2+, ^125 I-NGF was electrophoresed in a non-reducing SDS PAGE system as described, autoradiographed, and the labelled proteins excised from the gels and counted. For CD studies, NGF (50 μg/ml) was dissolved in 50 mM Tris-HCl buffer and spectra recorded using a computer controlled Jasco J-600 spectropolarimeter. Samples were acquired in the absence or presence of Zn^2+ (100 μM) at 22° C. in a 2 mm quartz cell averaged over eight scans. Modification of His residues by DEPC was carried out as previously described, where the molar excess of DEPC added and the extent of reaction was determined by evaluating the loss of binding activity of the modified product.

p75 = assay: Affinity cross-linking of 125I-NGF to p75 on PC12 cells; type: binding, rat; settings: for Inhibition of p75 Interaction: 0.1 nM 125I-NGF, PC12 cells
Protocol: The ability of the peptides under study to interfere with binding of NGF to NGF receptors was evaluated by analysis of inhibition of the chemical cross-linking of ^251 I-NGF to the common neurotrophin receptor p75 (Chao, J. Neurobiol. 25:1373-1385 (1994)) and the specific NGF receptor TrkA (Barbacid, J. Neurobiol. 25: 1386-1403 (1994)). Immunoprecipitation and polyacrylamide gel electrphoresis of cross linked receptors allowed identification of both receptors, as shown in FIG. 7A. […] At concentrations of 200 μM, neither R11(l) nor R11(m) were able to inhibit greater than 50% of the observed ^125 I-labelling.
The ability of the peptides derived from the 68-58/108-110 region of NGF to antagonize NGF interaction with the p75 and TrkA receptors was determined The peptides tested were bicyclic (BC) 68-58/108-110, cyclic (C) 68-58/108-110, and linear (L) 68-58/108-110, each of which are illustrated in FIGS. 2 and 5D
Receptor cross-linking studies were performed on PC12 rat pheochromocytoma cells (ATCC CRL 1721; Greene et al., Proc. Natl. Acad. Sci. USA 73: 2424-2432 (1976)) which were maintained in RPMI1640 (Gibco) supplemented with 10% fetal calf serum (Gibco). Cells were harvested by incubation and trituration in Ca^2+ and Mg^2+ free Gey's balanced salt solution, washed and suspended in 10 mM HEPES buffer (pH 7.35) containing 125 mM NaCl, 4.8 mM KCl, 1.3 mM CaCl2, […], 1.2 mM KH2 PO4, 1 g/L sucrose and 1 g/L bovine serum albumin (HEPES Krebs Ringer buffer, HKR buffer) at 10^6 cells/mL. Subsequent procedures were carried out at 4° C. unless otherwise noted.
For receptor crosslinking, ^125 I-NGF was prepared by the method of Sutter et al. (J. Biol. Chem. 254: 5972-5982 (1979)) from NGF isolated from mouse submaxillary gland (as described in Mobley et al., Biochemistry 15:1543 (1976)) obtained from Cedarlane.
[…] Control PC12 cells were incubated in HKR buffer in the presence of ^125 I-NGF only (no NGF peptide).
Receptor proteins were cross-linked with either 0.4 mM bis(sulfosuccinimidyl)suberate (BS^3, Pierce) for TrkA, or a combination of 2 mM […] (EDC) and 2 mM N-hydroxysulfosuccinimide (S-NHS) for p75^NTR as indicated. All cross-linking agents (from Pierce) were dissolved in water and added in 20 μL aliquots and the reaction allowed to proceed for 30 min at 25° C. On completion of the cross-linking reaction, the cells were washed three times in HKR buffer with BSA at 4° C. to remove excess free radiolabelled ligand and reagents. The cells were solubilized in 100 μL SDS sample buffer Samples were separated on a modified Laemmli discontinues acrylamide gel system (Laemmli, Nature 227:680 (1970)) using 4% SDS-PAGE stacking gel and a gradient urea polyacrylamide separating gel ranging from 4.5% acrylamide/18% urea to 7.5% acrylamide/48% urea. The gels were fixed and processed for autoradiography using -70° C. exposure with Kodak XAR film and manual processing (FIG. 7B).
For positive receptor identification, immunoprecipitation studies were performed. Samples of 10^7 cells in 1 mL HKR buffer were cross-linked under the conditions described above, washed in HKR buffer and solubilized in non-denaturing lysis buffer (1% NP40, 10% glycerol, 1 mM phenylmethylsulfonylfluoride, 10 μg/mL leupeptin and 0.5 mM o-vanadate in Tris-buffered saline) (Kaplan et al., Nature 350:1 158-160 (1991)). The solutions were clarified by centrifugation and immunoprecipitated with either mAb 192 (monoclonal antibody for p75; Cedarlane) or rabbit anti-TrkA, which had been raised against a COOH-terminal peptide of TrkA. The ^125 I-NGF cross-linked receptor-antibody complexes were isolated using 50 μL of a 50% solution of rabbit anti-mouse agarose (Sigma; for mAb 192) or protein A-Sepharose (Pharmcia; for anti-Trk) equilibrated in lysis buffer. Immunoprecipitates were washed three times in lysis buffer and the pellets denatured in SDS reducing sample buffer. […]

DRG neurons = assay: Survival of chick DRG neurons at 24 hours; type: cell-based; settings: 500 μM

T1 sequence (P01139 122-239): as above

Compound	steady-state specific binding of 125I-NGF (0.5 nM) to p75NTR and TrkA (p75^NTR and TrkA [1]; 10 μM)	steady-state specific binding of 125I-NGF (0.5 nM) to p75NTR and TrkA (p75^NTR and TrkA [1]; 30 μM)	steady-state specific binding of 125I-NGF (0.5 nM) to p75NTR and TrkA (p75^NTR and TrkA [1]; 50 μM)	Total Binding to PC12 cells (p75^NTR and TrkA [1]; 100 μM, 125I-NGF)	steady-state specific binding of 125I-NGF (0.5 nM) to p75NTR and TrkA (p75^NTR and TrkA [1]; 100 μM)	Non-specific binding of 125I-NGF (p75^NTR and TrkA [2])	Inhibition of 125I-NGF binding (p75^NTR and TrkA [3])	Percentage of NGF migrating as a dimer in non-reducing gel electrophoresis (NGF dimer)	Inhibition of p75 Interaction (p75; 20 μM peptide)	Inhibition of p75 Interaction (p75; 200 μM peptide, listed as BC)	Covalent attachment of 125I-NGF to receptor (p75) (p75; 200 μM, result in words)	Survival of neurons at 24 hours (DRG neurons)
[Zn+2] [Zn^2+]	88 ± 13 % Control	82 ± 10 % Control	44 ± 13 % Control	21 ± 5 % control	19 ± 9 % Control	altered non-specific binding	effectively blocked binding	No change				
NH2 -Cys-Gly-Ser-Glu-Val-Pro-Asn-Ser-Ala-Arg-Cys-Cys-Val-Cys-OH (H-CGSEVPNSARCCVC-OH; disulfide 1-14, 11-12) [R11, bicyclic peptide of NGF residues 68-58/108-110, two disulfide bonds]									+ (indicates less than 50% inhibition)	++ (indicates greater than 50% inhibition)	effectively prevented the covalent attachment	not influenced
